{"source": "patent US7858578B2", "about": "“Methods of inducing neuronal growth by a Fucose-α(1-2) galactose (fuc-α(1-2) gal) moiety and a lectin” (California Institute of Technology, priority 2004, dated 2010)", "key": {"hippocampal neurons": {"system": "hippocampal neurons", "test": "Effects of deoxy-galactose sugars on neuronal morphology (anti-tau immunostaining)", "format": "cell-based, rat", "method": "Hippocampal neurons were plated on poly-DL-ornithine-coated glass coverslips as described above. After one day in culture, the medium was replaced with fresh medium, and the small molecules (2-dGal, 3-Deoxy-D-Galactose (3-dGal), or D-Galactose (Gal)) were added. A dose-response experiment was initially performed to determine the minimum concentration of 2-dGal needed to elicit an effect. Neurons were treated with varying concentrations of 2-dGal (1, 5, 10, 15, or 30 mM in 25 μL PBS with 475 μL of supplemented Neurobasal medium) for 2 days before immunostaining with anti-tau antibodies as described above.\nCells were treated as above under 4 different conditions: (1) no treatment for 2 days, (2) incubation with 15 mM 2-dGal for 2 days, (3) incubation with 15 mM 2-dGal for 2 days followed by incubation with 75 mM Gal for 2 days, or (4) incubation with 15 mM 3-dGal for 2 days. After adding the small molecules, cultures were incubated at 37° C., 5% CO2, then washed once with PBS, and immunostained with anti-tau antibody as described above."}, "[1]": {"system": "Fucα(1-2)Gal epitope on glycoproteins", "test": "Western blot of neuronal lysates with anti-Fucα(1-2)Gal antibody A46-B/B10", "format": "cell-based, rat", "settings": "30 mM, 4 days", "method": "In addition to cells plated on coverslips, hippocampal neurons were grown in 30 mm dishes and treated with or without 30 mM 2-dGal (25 μL in PBS with 475 μL supplemented Neurobasal medium). After 4 days, cells were harvested with 2.5% trypsin, lysed with 1% boiling SDS with protease inhibitors, and cell lysates probed by Western blotting using the anti-Fucα(1-2)Gal antibody A46-B/B10 (Karsten, U., et al., G. Br. J. Cancer, 58:176-181 (1988)). Protein concentrations of the neuronal lysates were determined using the BCA Protein Assay (Pierce). Equal amounts of total protein were resolved by 10% SDS-PAGE, and proteins were transferred to PVDF membrane (Millipore) in 20 mM Tris-Cl pH 8.6/120 mM glycine/20% methanol. Western blots were blocked for 1 h with 3% periodated BSA (Glass, W. F., et al., Anal. Biochem., 115:219-224 (1981)) and rinsed with TBST (50 mM Tris-Cl pH 7.4/150 mM NaCl/0.1% Tween-20). Blots were incubated with anti-Fucα(1-2)Gal antibody A46-B/B10 (0.5 μg/mL; gift from Dr. U. Karsten, Max-Delbruck Centre for Molecular Medicine, Berlin-Buch, Germany) in TBST overnight at 4° C. with constant rocking, then rinsed and washed twice for 10 min with TBST. Immunoreactivity was visualized by incubation with a horseradish peroxidase conjugated goat anti-mouse antibody (1:2500; Pierce) in TBST for 1 h followed by a rinse and four washes of 20 min with TBST. […]"}, "[2]": {"system": "synapsin I expressed in HeLa cells", "test": "Synapsin fucosylation and expression in synapsin I-transfected HeLa cells (immunoblotting)", "format": "cell-based", "settings": "deoxy sugar for 24 h", "method": "(§1) FIG. 19. Inhibition of synapsin fucosylation using 2-dGal decreases the expression and half-life of synapsin I. (A) Effects of 2-dGal and 6-dGal on synapsin fucosylation (left panel) and synapsin expression (right panel) levels. Synapsin I-transfected HeLa cells were treated with the indicated amounts of the deoxy sugar for 24 h. Fucosylation and synapsin expression levels were measured by immunoblotting with antibody A46-B/B10 and an anti-synapsin antibody, respectively. […] Synapsin I-transfected HeLa cells were treated with 2-dGal or a vehicle control (PBS), pulse labeled with ^35S-L-cysteine and ^35S-L-methionine as described in Materials and Methods, and chased for the indicated times. ^35S-labeled synapsin levels were measured by autoradiography. (C) Inhibition of the calcium-activated protease calpain using a calpain inhibitor peptide or calpeptin protects synapsin from degradation. […] Synapsin I-transfected HeLa cells were treated with the indicated inhibitors or vehicle control (DMSO, PBS or MeOH) in the presence or absence of 2-dGal for 15 h. Following lysis, the cell extracts were analyzed for synapsin expression levels by immunoblotting.\nThe effects of 2-dGal on synapsin I expressed in HeLa cells were next investigated. Cell lysates containing equivalent amounts of transfected protein were resolved by SDS-PAGE, and the fucosylation and protein levels of synapsin were measured by immunoblotting, using methods described above."}, "[3]": {"system": "synapsin I-transfected HeLa cells", "test": "Synapsin degradation with inhibitors of protein degradation with or without 2-dGal", "format": "cell-based", "settings": "2-dGal alone, 15 h", "method": "as §1\nTo investigate the molecular mechanisms responsible for synapsin degradation, cells expressing synapsin were treated with various inhibitors of protein degradation in the presence or absence of 2-dGal. Specifically, the lysosomal inhibitors bafilomycin A1 and ammonium chloride, the proteasome inhibitor MG132, and two inhibitors of the calcium-dependent protease calpain, were used."}, "E18 cortical neurons": {"system": "E18 cortical neurons", "test": "Expression of synaptic proteins in cultured neurons (Western blotting)", "format": "cell-based", "settings": "15 mM for 3 days, neurons 7 DIV", "method": "(§2) FIG. 20. […] (A) E18 cortical neurons cultured for 7 DIV were treated with 15 mM of 2-dGal or 6-dGal for 3 days. Protein lysates were analyzed by Western blotting using antibodies selective for the indicated proteins. A significant reduction in the expression of synapsin Ib was observed, while other synapse-associated proteins were unaffected by the 2-dGal treatment. (B) Neurite retraction caused by 2-dGal is reduced in synapsin-deficient mice. Neurons from synapsin I-deficient or wild-type mice were cultured for 2 days, treated with 2-dGal for 3 days, and analyzed for mean neurite length.\nTo examine the effects of 2-dGal on synapsin fucosylation in neurons, neurons were cultured for 7 DIV to allow for adequate expression of synapsin and subsequently treated with 2-dGal or 6-dGal for comparison. Cells were lysed and immunoblotted as described above. […] The expression of other synaptic proteins, including NSF, the synaptic vesicle protein synaptotagmin, the presynaptic plasma membrane protein syntaxin, and the postsynaptic proteins PSD-95, the AMPA receptor GluR1 subunit and spinophilin, was unchanged by the 2-dGal treatment."}, "[4]": {"system": "neurons from synapsin I-deficient or wild-type mice", "test": "2-dGal-mediated neurite retraction in neurons from synapsin I-deficient or wild-type mice", "format": "cell-based", "settings": "cultured 2 days, 2-dGal for 3 days; n=50; p<0.003", "method": "as §2\nAlthough synapsin I represents the major fucosylated protein in mature neuronal cultures, other proteins are also covalently modified by Fucα(1-2)Gal during early developmental stages (See FIG. 9A). The relative contribution of synapsin to the striking effects of 2-dGal on neuronal morphology were therefore investigated. Neurons were cultured from synapsin I-deficient (Chin, L. S., et al., Proc. Natl. Acad. Sci. USA 92:9230-9234 (1995); Drs. H. T Kao and P. Greengard, The Rockefeller University, New York, N.Y.) or wild-type mice for 2 days, treated with 2-dGal for 3 days, immunostained for tubulin, and examined by confocal fluorescence microscopy. […]"}, "[5]": {"settings": "animals; cited from earlier work"}, "hippocampal slices": {"system": "hippocampal slices", "settings": "cited from earlier work"}}, "note": "Entries after “also recorded” stand apart in the source; their conditions may differ."}
{"compound": "O=CC[C@@H](O)[C@@H](O)[C@H](O)CO", "note": "[Compound 2-dGal, 2-Deoxy-D-Galactose]", "values": [{"measurement": "effect on neurite outgrowth", "setting": "hippocampal neurons; 15 mM for 2 days", "result": "strong effect on neurite outgrowth; also recorded: severely stunted neurites and failed to form synapses; also recorded: inhibits neuronal growth"}, {"measurement": "neurites with increasing concentration", "setting": "hippocampal neurons; 1, 5, 10, 15 or 30 mM for 2 days", "result": "gradual decrease in neurites"}, {"measurement": "cellular toxicity (trypan blue staining, adherence, morphology)", "setting": "hippocampal neurons; concentrations up to 30 mM", "result": "No cellular toxicity"}, {"measurement": "level of Fucα(1-2)Gal epitope on glycoproteins", "setting": "[1]", "result": "disrupted synthesis of the Fucα(1-2)Gal epitope on glycoproteins; also recorded: significantly reduced levels of the Fucα(1-2)Gal epitope; also recorded: diminishes expression of the Fucα(1-2)Gal epitope"}, {"measurement": "fucosylation level of synapsin", "setting": "[2]", "result": "dramatic effect on the fucosylation level of synapsin"}, {"measurement": "level of synapsin protein", "setting": "[2]", "result": "significant decrease in the level of synapsin protein"}, {"measurement": "levels of synapsin expression", "setting": "[3]", "result": "significantly reduced the levels of synapsin expression"}, {"measurement": "expression of other synaptic proteins (NSF, synaptotagmin, syntaxin, PSD-95, GluR1, spinophilin)", "setting": "E18 cortical neurons", "result": "unchanged"}, {"measurement": "expression of synapsin I", "setting": "E18 cortical neurons", "result": "dramatically reduced the expression of synapsin I; also recorded: reduces synapsin I expression levels"}, {"measurement": "increase of mean neurite length, synapsin knockout compared to wild-type neurons", "setting": "[4]", "result": "17.4±5.2", "unit": "%"}, {"measurement": "effect on memory", "setting": "[5]", "result": "reversible amnesia"}, {"measurement": "effect on LTP", "setting": "hippocampal slices", "result": "interferes with the maintenance of long-term potentiation"}]}
